Test results as given in US20140005164A1, “WNT PATHWAY ANTAGONISTS” (Siena Biotech S.p.A., priority 2011, published 2014).
Read-outs that look alike come from different tables or passages of the source.

Tested on: Wnt/β-catenin pathway
Experiment: Wnt reporter assay (TCF-Luciferase, Firefly) in DBTRG-05MG cells
Assay type: cell-based
Settings: Homo sapiens, read-out: IC50 value in the reporter assay
Experimental: Three copies of a 4×TCF responsive elements were cloned into the pcDNA3.1/Zeo(+) vector (Invitrogen) after deletion of the constitutive CMV promoter and the insertion of the Firefly Luciferase from Promega (phFL-TK) to measure the activity of the Wnt/β-catenin pathway. The resulting plasmid was sequenced for quality control.
Cells were grown in 20 μg/ml Zeocin and 20 μg/ml Zeocin plus 30 μg/ml Hygromicin respectively. The cells were plated at a density of 6500 cells/well in poly-D-lysine pre-treated 96 well-plates.
36 hours after plating cells were incubated with 8-points dilutions compound (0.6% DMSO (v/v)). Each compound was tested in triplicate in single plate. Luciferase detection was done with Dual-Luciferase Reporter Assay System (Promega). 24 hours after compound addition, media was removed and 30 μl of 1× lysis buffer was added to each well for 30 minutes. To each well 45 μl of Dual-Glo Luciferase reagent (Promega) were added and after 1 second delay Luciferase was detected for 1 second using Mithras LB940 instrument. After Firefly luciferase quantification 45 μl of Dual Stop & Glo reagent (Promega) were added to each well and […] Renilla was detected using the same parameters described before.
Data were expressed as % of control for Firefly and Renilla luciferase independently; values were calculated using XLFit version 4.2, with a four parameters sigmoid function (XLFit model 205).

[1] = TCF-Luciferase (Firefly) read out, 24 hours after compound addition, range given with mixed units nM and μM

| Structure (SMILES) | IC50 [1] [nM] | IC50 (24 h) [nM] |
| --- | --- | --- |
| COc1ccc2c(c1)n(C[C@H]1CC[C@H](C(=O)N3CCN(C(=O)[C@H]4CCC(=O)O4)CC3)CC1)c(=O)n2C [Example 75] | 35 to 23000 |  |
| COC/C=C/c1ccc2c(n1)n(C[C@H]1CC[C@H](C(=O)N3CCN(C(C)=O)CC3)CC1)c(=O)n2C [Example 4, 3-[Trans-4-(4-Acetyl-piperazine-1-carbonyl)-cyclohexylmethyl]-5-((E)-3-methoxy-propenyl)-1-methyl-1,3-dihydro-imidazo[4,5-b]pyridin-2-one] | 35 to 23000 |  |
| CN(C)c1ccc2c(n1)n(C[C@H]1CC[C@H](C(=O)Nc3ccncc3)CC1)c(=O)n2C [Example 120] | 35 to 23000 |  |
| Cn1c(=O)n(C[C@H]2CC[C@H](C(=O)N3CCN(c4ccncc4)CC3)CC2)c2cc(C#N)ccc21 [Example 123] | 35 to 23000 |  |
| COc1ccc2c(c1)n(C[C@H]1CC[C@H](C(=O)Nc3ccnc(N4CCOCC4)c3)CC1)c(=O)n2C [Example 50] | 35 to 23000 |  |
| CCOCc1nnc([C@H]2CC[C@H](Cn3c(=O)n(C)c4ccc(OC)cc43)CC2)o1 [Example 107] | 35 to 23000 |  |
| COc1ccc2c(c1)n(C[C@H]1CC[C@H](C(=O)Nc3ccc(N4C[C@@H](C)O[C@@H](C)C4)nc3)CC1)c(=O)n2C [Example 64] | 35 to 23000 |  |
| Cn1c(=O)n(C[C@H]2CC[C@H](C(=O)Nc3ccncc3)CC2)c2cc(OCc3ccncc3)ccc21 [Example 151] | 35 to 23000 |  |
| Cn1c(=O)n(C[C@H]2CC[C@H](C(=O)N3CCN(c4ncccn4)CC3)CC2)c2cc(Cl)ccc21 [Example 47] | 35 to 23000 |  |
| CC(=O)N1CCN(C(=O)[C@H]2CC[C@H](Cn3c(=O)n(C)c4ccc(CCCC#N)nc43)CC2)CC1 [Example 101] | 35 to 23000 |  |
| COc1ccc2c(c1)n(C[C@H]1CC[C@H](C(=O)Nc3cccnc3)CC1)c(=O)n2C [Example 37] | 35 to 23000 |  |
| Cn1c(=O)n(C[C@H]2CC[C@H](C(=O)N3CCN(c4ncccn4)CC3)CC2)c2c(Cl)cccc21 [Example 21] | 35 to 23000 |  |
| Cn1c(=O)n(C[C@H]2CC[C@H](C(=O)N3CCN(c4ncccn4)CC3)CC2)c2cc(C(F)(F)F)ccc21 [Example 25] | 35 to 23000 |  |
| CC(=O)N1CCN(C(=O)[C@H]2CC[C@H](Cn3c(=O)n(C)c4ccc(Br)nc43)CC2)CC1 [Example 3, 3-[trans 4-(4-Acetyl-piperazine-1-carbonyl)cyclohexylmethyl]-5-bromo-1-methyl-1,3-dihydro-imidazo[4,5-b]pyridin-2-one] | 35 to 23000 |  |
| COc1cc2c(cc1F)n(C)c(=O)n2C[C@H]1CC[C@H](C(=O)N2CCOCC2)CC1 [Example 160] | 35 to 23000 |  |
| COc1cc2c(cc1Cl)n(C[C@H]1CC[C@H](C(=O)N3CCN(c4ncccn4)CC3)CC1)c(=O)n2C [Example 46] | 35 to 23000 |  |
| Cn1c(=O)n(C[C@H]2CC[C@H](C(=O)Nc3ccnc(N4CCOCC4)c3)CC2)c2cc(Cl)ccc21 [Example 41] | 35 to 23000 |  |
| CCOc1ccc2c(c1)n(C[C@H]1CC[C@H](C(=O)Nc3ccncc3)CC1)c(=O)n2C [Example 17] | 35 to 23000 |  |
| COc1ccc2c(c1)n(C[C@H]1CC[C@H](c3nnc(-c4ccnnc4)o3)CC1)c(=O)n2C [Example 164] | 35 to 23000 |  |
| COc1ccc2c(c1)n(C[C@H]1CC[C@H](C(=O)Nc3cncnc3)CC1)c(=O)n2C [Example 103] | 35 to 23000 |  |

| Structure (SMILES) | IC50 [1] [nM] | IC50 (24 h) [nM] |
| --- | --- | --- |
| Cn1c(=O)n(C[C@H]2CC[C@H](C(=O)Nc3ccncc3)CC2)c2[nH]c(=O)ccc21 [Example 139] | 35 to 23000 |  |
| Cn1cc(C2=CCN(C(=O)[C@H]3CC[C@H](Cn4c(=O)n(C)c5ccc(=O)[nH]c54)CC3)CC2)cn1 [Example 135] | 35 to 23000 |  |
| Cn1c(=O)n(C[C@H]2CC[C@H](C(=O)Nc3ccncc3)CC2)c2nc(Br)ccc21 [Example 116] | 35 to 23000 |  |
| Cn1c(=O)n(C[C@H]2CC[C@H](C(=O)Nc3ccncc3)CC2)c2nc(OCc3ccccn3)ccc21 [Example 156] | 35 to 23000 |  |
| COc1ccc2c(c1)n(C[C@H]1CC[C@H](C(=O)N3CCC4(CC3)OCCO4)CC1)c(=O)n2C [Example 86] |  | 35 to 23000 |
| CC(=O)N1CCN(C(=O)[C@H]2CC[C@H](Cn3c(=O)n(C)c4ccc(O)cc43)CC2)CC1 [Example 16, 3-[trans-4-(4-Acetyl-piperazine-1-carbonyl)-cyclohexylmethyl]-5-hydroxy-1-methyl-1,3-dihydro-benzoimidazol-2-one] | 35 to 23000 |  |
| Cn1c(=O)n(C[C@H]2CC[C@H](C(=O)Nc3ccncc3)CC2)c2c(Cl)cccc21 [Example 28] | 35 to 23000 |  |
| COc1ccc2c(c1)n(C[C@H]1CC[C@H](C(=O)N3CCN(c4cnccn4)CC3)CC1)c(=O)n2C [Example 60] | 35 to 23000 |  |
| Cc1cc(NC(=O)[C@H]2CC[C@H](Cn3c(=O)n(C)c4c(Cl)cccc43)CC2)ccn1 [Example 49] | 35 to 23000 |  |
| COc1ccc2c(c1)n(C[C@H]1CC[C@H](C(=O)N3CCC(c4ncccn4)CC3)CC1)c(=O)n2C [Example 82] | 35 to 23000 |  |
| COc1ccc2c(c1)n(C[C@H]1CC[C@H](C(=O)N3CCSCC3)CC1)c(=O)n2C [Example 62] | 35 to 23000 |  |
| COc1ccc2c(c1)n(C[C@H]1CC[C@H](C(=O)Nc3ccncc3F)CC1)c(=O)n2C [Example 38] | 35 to 23000 |  |
| Cn1c(=O)n(C[C@H]2CC[C@H](C(=O)Nc3ccncc3)CC2)c2nc(OCC3CCCCO3)ccc21 (stereo partly drawn) [Example 168] | 35 to 23000 |  |
| COc1cc2c(cc1F)n(C)c(=O)n2C[C@H]1CC[C@H](C(=O)N2CCN(c3ncccn3)CC2)CC1 [Example 178] | 35 to 23000 |  |
| COc1ccc2c(c1)n(C[C@H]1CC[C@H](c3nnc(-c4ccc(C)nc4)o3)CC1)c(=O)n2C [Example 98] | 35 to 23000 |  |
| COc1ccc2c(c1)n(C[C@H]1CC[C@H](C(=O)N3CCC(C(C)=O)CC3)CC1)c(=O)n2C [Example 81] | 35 to 23000 |  |
| Cc1cc(NC(=O)[C@H]2CC[C@H](Cn3c(=O)n(C)c4cc(Cl)ccc43)CC2)ccn1 [Example 48] | 35 to 23000 |  |
| COc1ccc2c(c1)n(C[C@H]1CC[C@H](c3nnc(-c4ccncc4)o3)CC1)c(=O)n2C [Example 97] | 35 to 23000 |  |
| COc1ccc2c(c1)n(C[C@H]1CC[C@H](C(=O)N3CCN(c4ccc(F)nc4)CC3)CC1)c(=O)n2C [Example 89] | 35 to 23000 |  |
| Cn1c(=O)n(C[C@H]2CC[C@H](C(=O)Nc3ccncc3)CC2)c2ncccc21 [Example 142] | 35 to 23000 |  |

| Structure (SMILES) | IC50 [1] [nM] | IC50 (24 h) [nM] |
| --- | --- | --- |
| COc1ccc2c(c1)n(C[C@H]1CC[C@H](C(=O)N3CCN(c4cc(C)nc(C)c4)CC3)CC1)c(=O)n2C [Example 94] | 35 to 23000 |  |
| Cn1c(=O)n(C[C@H]2CC[C@H](C(=O)Nc3ccncc3)CC2)c2nc(OCCN3CCOCC3)ccc21 [Example 158] | 35 to 23000 |  |
| COCCOc1cc(NC(=O)[C@H]2CC[C@H](Cn3c(=O)n(C)c4c(Cl)cccc43)CC2)ccn1 [Example 42] | 35 to 23000 |  |
| Cn1c(=O)n(C[C@H]2CC[C@H](C(=O)N3CCN(c4nccs4)CC3)CC2)c2ccc(Cl)cc21 [Example 54] | 35 to 23000 |  |
| COc1ccc2c(c1)n(C[C@H]1CC[C@H](C(=O)N3[C@H](C)CCC[C@@H]3C)CC1)c(=O)n2C [Example 59] | 35 to 23000 |  |
| COc1ccc2c(c1)n(C[C@H]1CC[C@H](c3nnc(-c4ccn(C)n4)o3)CC1)c(=O)n2C [Example 110] | 35 to 23000 |  |
| COCCOc1ccc2c(c1)n(C[C@H]1CC[C@H](C(=O)N3CCN(c4ccncc4)CC3)CC1)c(=O)n2C [Example 157] | 35 to 23000 |  |
| CN(C)CC#Cc1ccc2c(n1)n(C[C@H]1CC[C@H](C(=O)Nc3ccncc3)CC1)c(=O)n2C [Example 119] | 35 to 23000 |  |
| Cn1c(=O)n(C[C@H]2CC[C@H](C(=O)Nc3ccncc3)CC2)c2cc(OCCC=C(F)F)ccc21 [Example 138] | 35 to 23000 |  |
| Cn1c(=O)n(C[C@H]2CC[C@H](C(=O)N3CCN(c4nccs4)CC3)CC2)c2cc(Cl)ccc21 [Example 53] | 35 to 23000 |  |
| COc1ccc2c(c1)n(C[C@H]1CC[C@H](C(=O)N3CCC(c4noc(C)n4)CC3)CC1)c(=O)n2C [Example 84] | 35 to 23000 |  |
| COCCOc1ccc2c(n1)n(C[C@H]1CC[C@H](c3nnc(-c4cnn(C)c4)o3)CC1)c(=O)n2C [Example 180] | 35 to 23000 |  |
| COc1ccc2c(c1)n(C[C@H]1CC[C@H](C(=O)Nc3ccnnc3)CC1)c(=O)n2C [Example 100] | 35 to 23000 |  |
| COc1cccc(COc2ccc3c(n2)n(C[C@H]2CC[C@H](C(=O)Nc4ccncc4)CC2)c(=O)n3C)c1 [Example 10, Trans-4-[5-(3-Methoxy-benzyloxy)-1-methyl-2-oxo-1,2-dihydro-imidazo[4,5-b]pyridin-3-ylmethyl]-cyclohexane carboxylic acid pyridin-4-ylamide] |  | 35 to 23000 |
| Cn1c(=O)n(C[C@H]2CC[C@H](C(=O)N3CCN(c4cnccn4)CC3)CC2)c2cc(C#N)ccc21 [Example 155] | 35 to 23000 |  |
| COCCOc1cc(NC(=O)[C@H]2CC[C@H](Cn3c(=O)n(C)c4cc(Cl)ccc43)CC2)ccn1 [Example 57] | 35 to 23000 |  |
| COc1ccc2c(c1)n(C[C@H]1CC[C@H](C(=O)Nc3cccc4ncccc34)CC1)c(=O)n2C [Example 188] | 35 to 23000 |  |
| COc1cc2c(cc1F)n(C)c(=O)n2C[C@H]1CC[C@H](c2nnc(-c3cccnc3)o2)CC1 [Example 175] | 35 to 23000 |  |
| COc1ccc2c(c1)n(C[C@H]1CC[C@H](C(=O)N3CCN(c4ncc(Br)cn4)CC3)CC1)c(=O)n2C [Example 80] | 35 to 23000 |  |
| COCCOc1ccc2c(n1)n(C[C@H]1CC[C@H](C(=O)N3CCN(c4cnn(C)c4)CC3)CC1)c(=O)n2C [Example 174] | 35 to 23000 |  |
